Reference: PubChem BioAssay (NCI)
Values joined by “and” are separate entries in the source; they are usually repeats but may differ in a detail not shown here. Equal values may be shown once.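 Step 1: Grow cells in 96-well plates. Step 2: Expose to compound for 48 hours at 5 concentrations. Step 3: Interpolate endpoints linearly; if unreached, use highest concentration. GI50 marks 50% less growth. TGI: total growth inhibition.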

Assays:
Assay in all cases: NCI anticancer screen, dose series, 48 h
COLO 205 colon = test system: COLO 205 colon
HCT-15 colon = test system: HCT-15 colon
HL-60(TB) leukemia = test system: HL-60(TB) leukemia
M14 melanoma = test system: M14 melanoma
OVCAR-4 ovarian = test system: OVCAR-4 ovarian
SNB-19 CNS = test system: SNB-19 CNS
SNB-75 CNS = test system: SNB-75 CNS
U251 CNS = test system: U251 CNS
MDA-MB-231 breast = test system: MDA-MB-231 breast
T-47D breast = test system: T-47D breast

For CCOC(=O)C1=C(Nc2ccc(Cl)cc2Cl)OCC1=O, the TGI (COLO 205 colon) was greater than 100 µM, the TGI (HCT-15 colon) was greater than 100 µM and the TGI (HL-60(TB) leukemia) was greater than 100 µM. It also gave a TGI (M14 melanoma) greater than 100 µM, a TGI (OVCAR-4 ovarian) greater than 100 µM and a TGI (SNB-19 CNS) greater than 100 µM. The TGI (SNB-75 CNS) was greater than 100 µM and the TGI (U251 CNS) was greater than 100 µM.

Compound CC1=CC(=O)CC2(C)CC[C@@H]3C[C@]12OC3(C)C (stereo not given in full) has a TGI (COLO 205 colon) greater than 100 µM, a TGI (HCT-15 colon) greater than 100 µM and a TGI (HL-60(TB) leukemia) greater than 100 µM. It also gave a TGI (M14 melanoma) greater than 100 µM, a TGI (OVCAR-4 ovarian) greater than 100 µM and a TGI (SNB-19 CNS) greater than 100 µM. For the same compound, the TGI (SNB-75 CNS) was greater than 100 µM and the TGI (U251 CNS) was greater than 100 µM.

Work on O=C(O)c1ccc(NCn2nc(-c3ccccc3O)oc2=S)cc1 yielded a GI50 (COLO 205 colon) of 48.8 µM, a TGI (COLO 205 colon) greater than 100 µM and a GI50 (HCT-15 colon) of 24.9 µM. The TGI (HCT-15 colon) was 57.5 µM, the GI50 (HL-60(TB) leukemia) was 62.8 µM and the TGI (HL-60(TB) leukemia) was greater than 100 µM. It also gave a GI50 (M14 melanoma) of 53.5 µM, a TGI (M14 melanoma) greater than 100 µM and a GI50 (MDA-MB-231 breast) of 16.1 µM. For the same compound, the TGI (MDA-MB-231 breast) was 58.5 µM, the GI50 (SNB-19 CNS) was greater than 100 µM and the TGI (SNB-19 CNS) was greater than 100 µM. It also gave a GI50 (T-47D breast) greater than 100 µM, a TGI (T-47D breast) greater than 100 µM and a GI50 (U251 CNS) of 43.1 µM. For the same compound, the TGI (U251 CNS) was greater than 100 µM.

CCC1CC2C(=O)N(c3ccccc3)C(=O)C2c2[nH]c3ccccc3c21 (stereo not given) gave a TGI (COLO 205 colon) of 78.5 µM, a TGI (HCT-15 colon) greater than 100 µM and a TGI (HL-60(TB) leukemia) of 98 µM. It also gave a TGI (M14 melanoma) greater than 100 µM, a TGI (OVCAR-4 ovarian) of 25.6 µM and a TGI (SNB-19 CNS) of 75.1 µM. For the same compound, the TGI (SNB-75 CNS) was 13 µM and the TGI (U251 CNS) was greater than 100 µM.

For COc1ccc(S(=O)(=O)N2CCN(C(=O)c3ccc(-c4ccccc4)cc3)CC2C(=O)NO)cc1 (stereo not given), the TGI (COLO 205 colon) was 12.5 µM and > 100 µM, the TGI (HCT-15 colon) was 12.5 µM and > 100 µM and the GI50 (HL-60(TB) leukemia) was 16.8 µM. For the same compound, the TGI (HL-60(TB) leukemia) was 38.1 µM, the GI50 (M14 melanoma) was 1.96 µM and the TGI (M14 melanoma) was 10 µM. The GI50 (OVCAR-4 ovarian) was 3.42 µM and 27.1 µM, the TGI (OVCAR-4 ovarian) was 12.5 µM and > 100 µM and the TGI (SNB-19 CNS) was 12.5 µM and > 100 µM. For the same compound, the GI50 (SNB-75 CNS) was 3.66 µM, the TGI (SNB-75 CNS) was 10.3 µM and the TGI (T-47D breast) was 12.5 µM and > 100 µM. For the same compound, the TGI (U251 CNS) was 12.5 µM and > 100 µM.

COc1cccc(/C(C#N)=C/c2nc3c(N4CCOCC4)nc(Cl)nc3n2C)c1 gave a GI50 (COLO 205 colon) of 1.33 µM, a TGI (COLO 205 colon) of 3.09 µM and a GI50 (HCT-15 colon) of 0.312 µM. For the same compound, the TGI (HCT-15 colon) was 1.3 µM, the GI50 (HL-60(TB) leukemia) was 1.46 µM and the TGI (HL-60(TB) leukemia) was 3.96 µM. The GI50 (M14 melanoma) was 1.06 µM, the TGI (M14 melanoma) was 2.38 µM and the GI50 (MDA-MB-231 breast) was 1.38 µM. For the same compound, the TGI (MDA-MB-231 breast) was 2.82 µM, the GI50 (OVCAR-4 ovarian) was 1.23 µM and the TGI (OVCAR-4 ovarian) was 2.59 µM. For the same compound, the GI50 (SNB-75 CNS) was 0.305 µM, the TGI (SNB-75 CNS) was 1.79 µM and the GI50 (U251 CNS) was 1.26 µM. It also gave a TGI (U251 CNS) of 2.66 µM.

In the case of C=C1C(=O)OC2C/C(C)=C/CC/C(C)=C/CCC3(COC(C)=O)OC3CC12 (stereo not given), the TGI (COLO 205 colon) is reported as 15.6 µM, the TGI (HCT-15 colon) is reported as 10.7 µM and the TGI (HL-60(TB) leukemia) is reported as 5.85 µM. For the same compound, the TGI (M14 melanoma) was 18.5 µM, the TGI (OVCAR-4 ovarian) was 46.5 µM and the TGI (SNB-19 CNS) was 31.4 µM. It also gave a TGI (SNB-75 CNS) of 27.6 µM and a TGI (U251 CNS) of 23.3 µM.

COc1cc(C2SCCCCCCCCCCSC(c3ccc(O)c(OC)c3)SCCCCCCCCCCS2)ccc1O (stereo not given) was tested, and the TGI (COLO 205 colon) was greater than 100 µM, the TGI (HCT-15 colon) was greater than 100 µM and the TGI (M14 melanoma) was greater than 100 µM. It also gave a TGI (MDA-MB-231 breast) greater than 100 µM, a TGI (OVCAR-4 ovarian) greater than 100 µM and a TGI (SNB-19 CNS) greater than 100 µM. For the same compound, the TGI (SNB-75 CNS) was greater than 100 µM, the TGI (T-47D breast) was greater than 100 µM and the TGI (U251 CNS) was greater than 100 µM.

O=c1/c(=C/c2ccccc2[N+](=O)[O-])sc2nc3ccccc3n12 gave a TGI (COLO 205 colon) greater than 46.4 µM, a TGI (HCT-15 colon) of 31.6 µM and a TGI (HL-60(TB) leukemia) greater than 46.4 µM. The TGI (M14 melanoma) was greater than 46.4 µM, the TGI (OVCAR-4 ovarian) was greater than 46.4 µM and the TGI (SNB-19 CNS) was greater than 77.9 µM. It also gave a TGI (SNB-75 CNS) of 33.5 µM and a TGI (U251 CNS) of 41.9 µM.

For O=C(/C=C/c1ccccc1)C(Br)C(Br)c1ccccc1 (stereo not given), the GI50 (COLO 205 colon) was 1.54 µM, the TGI (COLO 205 colon) was 3.14 µM and the GI50 (HL-60(TB) leukemia) was 1.34 µM. The TGI (HL-60(TB) leukemia) was 3.58 µM, the GI50 (M14 melanoma) was 2.02 µM and the TGI (M14 melanoma) was 4.9 µM. For the same compound, the GI50 (MDA-MB-231 breast) was 1.73 µM, the TGI (MDA-MB-231 breast) was 3.51 µM and the GI50 (OVCAR-4 ovarian) was 1.73 µM. The TGI (OVCAR-4 ovarian) was 3.67 µM, the GI50 (SNB-19 CNS) was 4.72 µM and the TGI (SNB-19 CNS) was 17.7 µM. For the same compound, the GI50 (SNB-75 CNS) was 3.06 µM, the TGI (SNB-75 CNS) was 17.5 µM and the GI50 (U251 CNS) was 1.68 µM. The TGI (U251 CNS) was 3.81 µM.
